Data published in ChEMBL document CHEMBL4251572, “Novel aminopyrimidinyl benzimidazoles as potentially antimicrobial agents: Design, synthesis and biological evaluation” (Eur J Med Chem, 2018).
Converted amounts (≈) assume the structure as drawn. The source made the active and inactive calls. The rule behind the calls is not given here.

Tests used:
Staphylococcus aureus [1] = experiment: Ratio of MBC for methicillin-resistant Staphylococcus aureus N315 to MIC for methicillin-resistant Staphylococcus aureus N315; format: functional
Cyberlindnera jadinii = experiment: Antifungal against Candida utilis after 24 hrs by two fold serial dilution method; format: functional; settings: Williopsis jadinii
Shigella dysenteriae = experiment: Antibacterial activity against Shigella dysenteriae after 24 hrs by micro broth dilution assay; format: functional
Escherichia coli [2] = experiment: Antibacterial activity against Escherichia coli DH52 after 24 hrs by micro broth dilution assay; format: functional; settings: DH52, 24 h
Pseudomonas aeruginosa [3] = experiment: Antibacterial activity against Pseudomonas aeruginosa after 24 hrs by micro broth dilution assay; format: functional
Salmonella typhi = experiment: Antibacterial activity against Bacillus typhi after 24 hrs by micro broth dilution assay; format: functional, Salmonella enterica subsp. enterica serovar Typhi; settings: Salmonella enterica
Pichia norvegensis = experiment: Antifungal against Candida mycoderma after 24 hrs by two fold serial dilution method; format: functional
Bacillus subtilis = experiment: Antibacterial activity against Bacillus subtilis after 24 hrs by micro broth dilution assay; format: functional
Pseudomonas aeruginosa [4] = experiment: Ratio of MBC for Pseudomonas aeruginosa to MIC for Pseudomonas aeruginosa; format: functional
Staphylococcus aureus [5] = experiment: Antibacterial activity against methicillin-resistant Staphylococcus aureus N315 incubated for 24 hrs followed by plating onto tryptic soy agar medium and measured after 24 hrs; format: functional; settings: N315, 24 h
Pseudomonas aeruginosa [6] = experiment: Antibacterial activity against Pseudomonas aeruginosa incubated for 24 hrs followed by plating onto tryptic soy agar medium and measured after 24 hrs; format: functional
Bacillus = experiment: Antibacterial activity against Bacillus proteus ATCC 13315 after 24 hrs by micro broth dilution assay; format: functional; settings: ATCC 13315, 24 h
Escherichia coli [7] = experiment: Antibacterial activity against Escherichia coli JM109 after 24 hrs by micro broth dilution assay; format: functional; settings: JM109, 24 h
Staphylococcus aureus [8] = experiment: Antibacterial activity against methicillin-resistant Staphylococcus aureus N315 after 24 hrs by micro broth dilution assay; format: functional; settings: N315, 24 h
Aspergillus flavus = experiment: Antifungal against Aspergillus flavus after 24 hrs by two fold serial dilution method; format: functional
Staphylococcus aureus [9] = experiment: Antibacterial activity against Staphylococcus aureus ATCC 25923 after 24 hrs by micro broth dilution assay; format: functional; settings: ATCC 25923, 24 h
Candida albicans = experiment: Antifungal against Candida albicans ATCC 76615 after 24 hrs by two fold serial dilution method; format: functional; settings: ATCC 76615, 24 h
Saccharomyces cerevisiae = experiment: Antifungal against Saccharomyces cerevisiae after 24 hrs by two fold serial dilution method; format: functional
Staphylococcus aureus [10] = experiment: Antibacterial activity against Staphylococcus aureus ATCC 25923 incubated for 24 hrs followed by plating onto tryptic soy agar medium and measured after 24 hrs; format: functional; settings: ATCC 25923, 24 h
Micrococcus luteus = experiment: Antibacterial activity against Micrococcus luteus ATCC4698 after 24 hrs by micro broth dilution assay; format: functional; settings: ATCC4698, 24 h
Staphylococcus aureus [11] = experiment: Ratio of MBC for Staphylococcus aureus ATCC 25923 to MIC for Staphylococcus aureus ATCC 25923; format: functional
Staphylococcus aureus [12] = experiment: Antibacterial activity against methicillin-resistant Staphylococcus aureus N315 after 16 serial passages by two-fold serial dilution assay; format: functional, organism-based
HepG2 = experiment: Induction of ROS generation in human HepG2 cells at 6.25 to 50 uM by DCFH-DA staining based fluorescence microscopic analysis; format: cell-based; settings: hepg2, 50 µM
Albumin [13] = target: T1, Albumin (Homo sapiens, UniProt P02768); experiment: Binding affinity to HSA assessed as Stern-Volmer quenching constant at pH 7.4 at 284 K by fluorescence spectroscopic analysis; format: ADME; settings: isolated protein
T1 sequence (P02768 whole entry): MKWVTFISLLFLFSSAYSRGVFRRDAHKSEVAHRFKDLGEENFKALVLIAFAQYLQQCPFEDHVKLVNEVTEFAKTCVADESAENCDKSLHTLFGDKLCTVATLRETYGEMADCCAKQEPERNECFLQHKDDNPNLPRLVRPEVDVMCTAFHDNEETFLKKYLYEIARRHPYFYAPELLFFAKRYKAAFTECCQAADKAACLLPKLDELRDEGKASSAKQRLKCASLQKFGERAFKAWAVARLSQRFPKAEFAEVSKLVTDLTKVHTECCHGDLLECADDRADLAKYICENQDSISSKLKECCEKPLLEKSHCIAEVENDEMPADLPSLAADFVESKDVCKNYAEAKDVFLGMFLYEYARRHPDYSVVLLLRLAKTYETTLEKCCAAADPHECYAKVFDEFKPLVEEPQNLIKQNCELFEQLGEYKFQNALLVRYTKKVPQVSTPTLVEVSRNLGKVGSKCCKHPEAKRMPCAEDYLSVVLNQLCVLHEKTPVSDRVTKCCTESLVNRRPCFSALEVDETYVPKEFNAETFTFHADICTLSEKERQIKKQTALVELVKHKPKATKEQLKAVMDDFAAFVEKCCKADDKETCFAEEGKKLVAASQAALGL

Albumin [14] = target: T1, Albumin; experiment: Binding affinity to HSA assessed as Stern-Volmer quenching constant at pH 7.4 at 303 K by fluorescence spectroscopic analysis; format: ADME; settings: isolated protein
Albumin [15] = target: T1, Albumin; experiment: Binding affinity to HSA assessed as increase in absorption intensity by UV-vis absorption spectra analysis; format: ADME; settings: isolated protein
Albumin [16] = target: T1, Albumin; experiment: Binding affinity to HSA at 0.2 to 1 10'5 mol/L by synchronous fluorescence […]; format: ADME; settings: isolated protein
Calf thymus DNA [17] = experiment: Binding affinity to calf thymus DNA assessed as Stern-Volmer quenching constant at 2 x 10^-5 mol/L at pH 7.4 at 298 K in presence of potassium iodide by fluorescence assay (reference value: 46.23 L/mol); format: nucleic-acid assay; settings: Bos taurus
Calf thymus DNA [18] = experiment: Binding affinity to calf thymus DNA by UV-vis absorption spectra analysis; format: nucleic-acid assay; settings: Bos taurus
Calf thymus DNA [19] = experiment: Competitive binding affinity to calf thymus DNA assessed as reduction in DNA_AO complex fluorescence intensity by acridine orange staining-based assay; format: nucleic-acid assay; settings: Bos taurus
Albumin [20] = target: T1, Albumin; experiment: Binding affinity to HSA assessed as Stern-Volmer quenching constant at pH 7.4 at 298 K by fluorescence spectroscopic analysis; format: ADME; settings: isolated protein
L02 = experiment: Cytotoxicity against human LO2 cells at 100 to 500 ug/ml after 48 hrs by MTT assay; format: cell-based; settings: l02, 48 h
Calf thymus DNA [21] = experiment: Binding affinity to calf thymus DNA assessed as hypochromic effect by UV-vis absorption spectra analysis; format: nucleic-acid assay; settings: Bos taurus

| SMILES | MIC (Cyberlindnera jadinii) | MIC (Shigella dysenteriae) | MIC (Escherichia coli [2]) | MIC (Pseudomonas aeruginosa [3]) | MIC (Salmonella typhi) | MIC (Pichia norvegensis) | MIC (Bacillus subtilis) | Ratio (Pseudomonas aeruginosa [4]) | MBC (Staphylococcus aureus [5]) | MBC (Pseudomonas aeruginosa [6]) | MIC (Bacillus) | MIC (Escherichia coli [7]) | MIC (Staphylococcus aureus [8]) | MIC (Aspergillus flavus) | MIC (Staphylococcus aureus [9]) | MIC (Candida albicans) | MIC (Saccharomyces cerevisiae) | MBC (Staphylococcus aureus [10]) | MIC (Micrococcus luteus) | Ratio (Staphylococcus aureus [11]) | also measured |
| --- | --- | --- | --- | --- | --- | --- | --- | --- | --- | --- | --- | --- | --- | --- | --- | --- | --- | --- | --- | --- | --- |
| CCCCn1c(-c2cc(-c3ccc(Cl)cc3)nc(N)n2)nc2ccccc21 | 2 µg/mL (≈ 5.29 µM) | 256 µg/mL (≈ 677 µM) | 128 µg/mL (≈ 339 µM) | 64 µg/mL (≈ 169 µM) | 8 µg/mL (≈ 21.2 µM) | 4 µg/mL (≈ 10.6 µM) | 64 µg/mL (≈ 169 µM) | 8 | 64 µg/mL (≈ 169 µM) | 512 µg/mL (≈ 1350 µM) | 4 µg/mL (≈ 10.6 µM) | 64 µg/mL (≈ 169 µM) | 32 µg/mL (≈ 84.7 µM) | 256 µg/mL (≈ 677 µM) | 16 µg/mL (≈ 42.3 µM) | 64 µg/mL (≈ 169 µM) | 128 µg/mL (≈ 339 µM) | 16 µg/mL (≈ 42.3 µM) | 64 µg/mL (≈ 169 µM) | 1 | Ratio (Staphylococcus aureus [1]): 2 |
| Nc1nc(-c2nc3ccccc3[nH]2)cc(-c2ccc(Cl)cc2Cl)n1 | 2 µg/mL (≈ 5.61 µM) | 16 µg/mL (≈ 44.9 µM) | 16 µg/mL (≈ 44.9 µM) | 32 µg/mL (≈ 89.8 µM) | 16 µg/mL (≈ 44.9 µM) | 2 µg/mL (≈ 5.61 µM) | 8 µg/mL (≈ 22.5 µM) | 2 | 16 µg/mL (≈ 44.9 µM) | 64 µg/mL (≈ 180 µM) | 1 µg/mL (≈ 2.81 µM) | 64 µg/mL (≈ 180 µM) | 8 µg/mL (≈ 22.5 µM) | 8 µg/mL (≈ 22.5 µM) | 8 µg/mL (≈ 22.5 µM) | 1 µg/mL (≈ 2.81 µM) | 8 µg/mL (≈ 22.5 µM) | 8 µg/mL (≈ 22.5 µM) | 1 µg/mL (≈ 2.81 µM) | 1 | Ratio (Staphylococcus aureus [1]): 2 |
| Nc1nc(-c2ccc(F)cc2)cc(-c2nc3ccccc3[nH]2)n1 | 128 µg/mL (≈ 419 µM) | 16 µg/mL (≈ 52.4 µM) | 128 µg/mL (≈ 419 µM) | 16 µg/mL (≈ 52.4 µM) | 8 µg/mL (≈ 26.2 µM) | 256 µg/mL (≈ 838 µM) | 2 µg/mL (≈ 6.55 µM) | 1 | 512 µg/mL (≈ 1680 µM) | 16 µg/mL (≈ 52.4 µM) | 128 µg/mL (≈ 419 µM) | 128 µg/mL (≈ 419 µM) | 128 µg/mL (≈ 419 µM) | 256 µg/mL (≈ 838 µM) | 2 µg/mL (≈ 6.55 µM) | 8 µg/mL (≈ 26.2 µM) | 64 µg/mL (≈ 210 µM) | 2 µg/mL (≈ 6.55 µM) | 32 µg/mL (≈ 105 µM) | 1 | Ratio (Staphylococcus aureus [1]): 4 |
| CCn1cc(C(=O)O)c(=O)c2cc(F)c(N3CCNCC3)cc21 [NORFLOXACIN] |  | 16 µg/mL (≈ 50.1 µM) | 1 µg/mL (≈ 3.13 µM) | 1 µg/mL (≈ 3.13 µM) | 1 µg/mL (≈ 3.13 µM) |  | 2 µg/mL (≈ 6.26 µM) |  |  |  | 4 µg/mL (≈ 12.5 µM) | 1 µg/mL (≈ 3.13 µM) | 1 µg/mL (≈ 3.13 µM) |  | 8 µg/mL (≈ 25.1 µM) |  |  |  | 1 µg/mL (≈ 3.13 µM) |  | Activity (Staphylococcus aureus [12]): inactive |
| Nc1nc(-c2ccc(Cl)cc2)cc(-c2nc3ccccc3[nH]2)n1 | 2 µg/mL (≈ 6.22 µM) | 32 µg/mL (≈ 99.4 µM) | 128 µg/mL (≈ 398 µM) | 128 µg/mL (≈ 398 µM) | 512 µg/mL (≈ 1590 µM) | 512 µg/mL (≈ 1590 µM) | 64 µg/mL (≈ 199 µM) | 4 | 256 µg/mL (≈ 796 µM) | 512 µg/mL (≈ 1590 µM) | 8 µg/mL (≈ 24.9 µM) | 32 µg/mL (≈ 99.4 µM) | 128 to 512 µg/mL (≈ 398 to 1590 µM) | 4 µg/mL (≈ 12.4 µM) | 64 µg/mL (≈ 199 µM) | 1 µg/mL (≈ 3.11 µM) | 512 µg/mL (≈ 1590 µM) | 256 µg/mL (≈ 796 µM) | 64 µg/mL (≈ 199 µM) | 4 | Ratio (Staphylococcus aureus [1]): 2 |
| Cc1ccc(-c2cc(-c3nc4ccccc4[nH]3)nc(N)n2)cc1 | 4 µg/mL (≈ 13.3 µM) | 16 µg/mL (≈ 53.1 µM) | 1 µg/mL (≈ 3.32 µM) | 4 µg/mL (≈ 13.3 µM) | 2 µg/mL (≈ 6.64 µM) | 4 µg/mL (≈ 13.3 µM) | 8 µg/mL (≈ 26.5 µM) | 2 | 8 µg/mL (≈ 26.5 µM) | 8 µg/mL (≈ 26.5 µM) | 4 µg/mL (≈ 13.3 µM) | 2 µg/mL (≈ 6.64 µM) | 8 µg/mL (≈ 26.5 µM) | 1 µg/mL (≈ 3.32 µM) | 8 µg/mL (≈ 26.5 µM) | 8 µg/mL (≈ 26.5 µM) | 4 µg/mL (≈ 13.3 µM) | 8 µg/mL (≈ 26.5 µM) | 8 µg/mL (≈ 26.5 µM) | 1 | Activity (HepG2): Non-Toxic; KSV (Albumin [13]): 1.96 ×10⁵ L/mol; KSV (Albumin [14]): 1.73 ×10⁵ L/mol; Activity (Albumin [15]): Active; Activity (Albumin [16]): Active; KSV (Calf thymus DNA [17]): 39.9 L/mol; Activity (Staphylococcus aureus [12]): Active; K (Calf thymus DNA [18]): 1.54 ×10⁴ L/mol; Activity (Calf thymus DNA [19]): Dose-dependent effect; KSV (Albumin [20]): 1.9 ×10⁵ L/mol; Activity (L02): Non-Toxic; Activity (Calf thymus DNA [21]): Active |
